pEC50, pIC50: −log10 of the molar value. Read-outs that look alike come from different tables or passages of the source.

One experiment concerns the target human DGKα (Homo sapiens, UniProt P23743). The experiment is described as follows: DGKα Biochemical Activity Assay (ADP-Glo).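 Also: luminescent detection of ADP produced as DGKα phosphorylates DAG to phosphatidic acid, IC50 from four-parameter nonlinear curve fit.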
In experiment [1] the test system is Jurkat NFκB-luciferase cells. Kind of experiment: Jurkat NFκB-Luciferase Assay. The following applies: Homo sapiens; for pEC50: Jurkat NFκB-luciferase cells activated with anti-CD3 antibody (OKT3), 2.5 hrs at 37° C., geometric mean, read-out: DGK NFKb Luciferase EC50; for EC50: Jurkat, read-out: DGK NFKb Luciferase EC50 (nM). In kind it is cell-based. An outline of the steps: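 Jurkat NFκB-luciferase reporter cells at 1 million cells/ml in RPMI with 10% FBS were added to antibody-coated, compound-containing wells. Luciferase activity read by One-Glo Ex luminescence 7 minutes after reagent addition.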

The mark [2] stands for this setting: recombinant DGKα 1 nM, 100 μM ATP, 18:1 DAG/POPS/octylglucoside micelles, 1 hour at 25° C., geometric mean, read-out: HTBS DGKa 1X ATP KM IC50.

Chain of human DGKα (P23743 whole entry): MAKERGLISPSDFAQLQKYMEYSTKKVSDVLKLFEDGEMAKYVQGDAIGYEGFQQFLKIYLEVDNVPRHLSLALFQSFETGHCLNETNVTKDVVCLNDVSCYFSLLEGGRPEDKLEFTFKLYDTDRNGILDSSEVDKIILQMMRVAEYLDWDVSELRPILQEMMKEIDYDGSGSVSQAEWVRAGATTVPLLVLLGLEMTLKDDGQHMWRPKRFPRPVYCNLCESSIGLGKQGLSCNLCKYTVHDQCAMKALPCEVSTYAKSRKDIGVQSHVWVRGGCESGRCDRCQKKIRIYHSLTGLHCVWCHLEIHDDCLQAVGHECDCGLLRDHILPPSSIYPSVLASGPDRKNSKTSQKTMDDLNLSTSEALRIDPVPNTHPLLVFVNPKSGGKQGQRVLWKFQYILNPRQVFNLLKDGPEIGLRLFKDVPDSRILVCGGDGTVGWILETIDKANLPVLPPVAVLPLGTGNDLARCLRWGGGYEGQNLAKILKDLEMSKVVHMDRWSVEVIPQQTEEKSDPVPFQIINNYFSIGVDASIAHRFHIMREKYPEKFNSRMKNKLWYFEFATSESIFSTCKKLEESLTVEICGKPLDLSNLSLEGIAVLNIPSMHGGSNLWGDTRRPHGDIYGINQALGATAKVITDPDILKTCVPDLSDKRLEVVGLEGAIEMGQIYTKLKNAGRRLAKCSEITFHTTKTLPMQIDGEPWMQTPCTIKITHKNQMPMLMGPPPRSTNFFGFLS

As for `Cc1nnc2nc(N3CCOCc4c3ccnc4C#CC(C)(C)NC(=O)C3(C(F)(F)F)CC3)c3c(F)cccc3n12` [Example 137, N-(4-(1-(6-fluoro-1-methyl-[1,2,4]triazolo[4,3-a]quinazolin-5-yl)-1,2,3,5-tetrahydropyrido[4,3-e][1,4]oxazepin-6-yl)-2-methylbut-3-yn-2-yl)-1-(trifluoromethyl)cyclopropane-1-carboxamide], at human DGKα (setting [2]), the pIC50 was 7.75. For the same molecule, in experiment [1], the pEC50 was 6.98.
The like results for `Cc1nnc2nc(N(CC(F)F)c3ccnc(C#CC(C)(C)C(F)F)c3F)c3c(F)cccc3n12` [Example 42, N-[2-(4,4-difluoro-3,3-dimethyl-but-1-ynyl)-3-fluoro-4-pyridyl]-N-(2,2-difluoroethyl)-6-fluoro-1-methyl-[1,2,4]triazolo[4,3-a]quinazolin-5-amine] were, in that order, 8.16 and 8.63.
On human DGKα, `Cc1nnc2nc(N3CCN(C)Cc4c(C#CC(C)(C)C#N)cccc43)c3c(F)cccc3n12` [compound 163] gave a pIC50 of 7.77. Moreover, in experiment [1], the pEC50 was 7.55.
As to `CC(C)(O)C#Cc1cc(F)cc(N(CC(F)F)c2nc3nncn3c3c(Cl)cc(F)cc23)c1` [Example 50, 4-[3-[(9-chloro-7-fluoro-[1,2,4]triazolo[4,3-a]quinazolin-5-yl)-(2,2-difluoroethyl)amino]-5-fluoro-phenyl]-2-methyl-but-3-yn-2-ol], on human DGKα (setting [2]), the pIC50 was 7.93. For the same molecule, the EC50 in experiment [1] stood at 16.8 nM.
Turning to `Cc1cccc2c(N3CCOCc4c(C#CC5(C(C)(F)F)CC5)cccc43)nc3nncn3c12` [Example 107], the pIC50 on human DGKα (setting [2]) is 7.40. In experiment [1], the pEC50 was 8.49.
On the same counts, the results for `CC(C)(O)C#Cc1cc(N(CC(F)F)c2nc3nncn3c3c(Cl)cc(F)cc23)ccn1` [Example 60, 4-(4-((9-chloro-7-fluoro-[1,2,4]triazolo[4,3-a]quinazolin-5-yl)(2,2-difluoroethyl)amino)pyridin-2-yl)-2-methylbut-3-yn-2-ol] are 7.16 and 6.27.
The like results for `Cc1nnc2nc(N3CCCc4c(C#Cc5cn[nH]c5)cccc43)c3cc(F)ccc3n12` [Example 225, 7-fluoro-1-methyl-5-[5-[2-(1H-pyrazol-4-yl)ethynyl]-3,4-dihydro-2H-quinolin-1-yl]-[1,2,4]triazolo[4,3-a]quinazoline] were, in that order, 8.13 and 8.05.
In the case of `OC1(C#Cc2cccc3c2CCCN3c2nc3nncn3c3ccc(F)c(F)c23)CCCCC1` [Example 209, 1-[2-[1-(6,7-Difluoro-[1,2,4]triazolo[4,3-a]quinazolin-5-yl)-3,4-dihydro-2H-quinolin-5-yl]ethynyl]cyclohexanol], the pIC50 on human DGKα (setting [2]) was 8.66. For the same molecule, the EC50 in experiment [1] turned out to be 1.17 nM.
As for `Cc1nnc2nc(N3CCOCc4c(C#CC(C)(C)C(C)(F)F)cccc43)c3c(F)c(F)ccc3n12` [Example 184, 6-(4,4-Difluoro-3,3-dimethyl-pent-1-ynyl)-1-(6,7-difluoro-1-methyl-[1,2,4]triazolo[4,3-a]quinazolin-5-yl)-3,5-dihydro-2H-4,1-benzoxazepine], the pIC50 at human DGKα (setting [2]) was 8.12. In experiment [1], the pEC50 was 9.10.
As to `Cc1nnc2nc(N3CCCCc4c(C#CC(C)(C)NC(=O)C5(C(F)(F)F)CC5)cccc43)c3c(F)c(F)ccc3n12` [Example 176], at human DGKα (setting [2]), the pIC50 is 7.91. In experiment [1], the pEC50 was 8.18.
Take `Cc1nnc2nc(N(CC(F)F)c3ccnc(C#CC(C)(C)O)c3F)c3c(F)cccc3n12` [Example 45, 4-[4-[2,2-difluoroethyl-(6-fluoro-1-methyl-[1,2,4]triazolo[4,3-a]quinazolin-5-yl)amino]-3-fluoro-2-pyridyl]-2-methyl-but-3-yn-2-ol]: the pIC50 on human DGKα (setting [2]) was 8.08. The EC50 in experiment [1] was determined as 329 nM.
On to `Cc1nnc2nc(N3CCOCc4c(C#CC(C)(C)NC(=O)C(C)(C)C(C)(F)F)cccc43)c3c(F)cccc3n12` [Example 180, 3,3-Difluoro-N-[3-[1-(6-fluoro-1-methyl-[1,2,4]triazolo[4,3-a]quinazolin-5-yl)-3,5-dihydro-2H-4,1-benzoxazepin-6-yl]-1,1-dimethyl-prop-2-ynyl]-2,2-dimethyl-butanamide], for which, on human DGKα (setting [2]), the pIC50 is 8.29. Besides, the pEC50 in experiment [1] is 7.87.
The like results for `CC(F)(F)C1(C#Cc2cncc3c2CCCN3c2nc3nncn3c3ccc(F)c(F)c23)CC1` [Example 16, 5-(5-((1-(1,1-difluoroethyl)cyclopropyl)ethynyl)-3,4-dihydro-1,7-naphthyridin-1(2H)-yl)-6,7-difluoro-[1,2,4]triazolo[4,3-a]quinazoline] were, in that order, 7.64 and 8.81.
For `Cc1nnc2nc(N3CCCc4c(C#CC5CC5)cccc43)c3c(F)c(F)ccc3n12` [Example 131, 5-[5-(2-cyclopropylethynyl)-3,4-dihydro-2H-quinolin-1-yl]-6,7-difluoro-1-methyl-[1,2,4]triazolo[4,3-a]quinazoline], the pIC50 at human DGKα (setting [2]) was 8.06. The pEC50 in experiment [1] is 8.67.
For the molecule `Cc1nnc2nc(N3CCCc4c(N5CCC(C)(C#N)CC5)cccc43)c3c(F)cccc3n12` [Example 155, 1-[1-(6-fluoro-1-methyl-[1,2,4]triazolo[4,3-a]quinazolin-5-yl)-3,4-dihydro-2H-quinolin-5-yl]-4-methyl-piperidine-4-carbonitrile], at human DGKα (setting [2]), the pIC50 is 7.59. The pEC50 in experiment [1] was 8.29.
In the case of `Cc1nnc2nc(N(CC(F)F)c3cc(F)cc(C#CC(C)(C)c4cccnc4)c3)c3c(F)c(F)ccc3n12` [Example 67, N-(2,2-difluoroethyl)-6,7-difluoro-N-(3-fluoro-5-(3-methyl-3-(pyridin-3-yl)but-1-yn-1-yl)phenyl)-1-methyl-[1,2,4]triazolo[4,3-a]quinazolin-5-amine], the pIC50 on human DGKα (setting [2]) is 6.81. Besides, the pEC50 in experiment [1] was 7.94.
As for `COc1ccc(C#Cc2cccc3c2CCCN3c2nc3nnc(C)n3c3ccc(F)cc23)cn1` [Example 228, 7-fluoro-5-[5-[2-(6-methoxy-3-pyridyl)ethynyl]-3,4-dihydro-2H-quinolin-1-yl]-1-methyl-[1,2,4]triazolo[4,3-a]quinazoline], the pIC50 at human DGKα (setting [2]) was 7.75. In experiment [1], the pEC50 was 9.50.
With `Cc1nnc2nc(N(CC(F)F)c3cc(F)cc(C#Cc4cnn(C)c4)c3)c3c(F)c(F)ccc3n12` [Example 227, N-(2,2-difluoroethyl)-6,7-difluoro-N-[3-fluoro-5-[2-(1-methylpyrazol-4-yl)ethynyl]phenyl]-1-methyl-[1,2,4]triazolo[4,3-a]quinazolin-5-amine], on human DGKα (setting [2]), the pIC50 is 7.53. Further, in experiment [1], the pEC50 is 8.01.
On the same counts, the results for `Cc1nnc2nc(N3CCCc4c(C#Cc5cncn5C)cccc43)c3cc(F)ccc3n12` [Example 232, 7-fluoro-1-methyl-5-[5-[2-(3-methylimidazol-4-yl)ethynyl]-3,4-dihydro-2H-quinolin-1-yl]-[1,2,4]triazolo[4,3-a]quinazoline] are 7.91 and 8.03.
For the molecule `Cc1nnc2nc(N3CCCc4c(C#CC5(O)CCC5)cccc43)c3cc(F)ccc3n12` [Example 28, 1-((1-(7-fluoro-1-methyl-[1,2,4]triazolo[4,3-a]quinazolin-5-yl)-1,2,3,4-tetrahydroquinolin-5-yl)ethynyl)cyclobutan-1-ol], the pIC50 at human DGKα (setting [2]) was 8.02. Further, the pEC50 in experiment [1] is 8.29.
Take `Fc1cccc2c1c(N1CCCc3c(C#CC4CC(F)(F)C4)cncc31)nc1nncn12` [Example 17, 5-(5-((3,3-difluorocyclobutyl)ethynyl)-3,4-dihydro-1,7-naphthyridin-1(2H)-yl)-6-fluoro-[1,2,4]triazolo[4,3-a]quinazoline]: the pIC50 at human DGKα (setting [2]) was 7.83. Besides, the pEC50 in experiment [1] is 8.93.
On the same counts, the results for `COc1ccc(C#Cc2cc(N(CC(F)F)c3nc4nnc(C)n4c4cccc(F)c34)ccn2)cn1` [Example 74, N-(2,2-difluoroethyl)-6-fluoro-N-(2-((6-methoxypyridin-3-yl)ethynyl)pyridin-4-yl)-1-methyl-[1,2,4]triazolo[4,3-a]quinazolin-5-amine] are 8.21 and 8.71.
On to `CC1(C#Cc2cccc3c2CCCN3c2nc3nncn3c3c(F)ccc(F)c23)CC1` [Example 117], for which, at human DGKα (setting [2]), the negative logarithm of the IC50 (pIC50) is 7.83. Moreover, in experiment [1], the pEC50 was 8.88.
As to `Cc1nnc2nc(N3CCOCc4c(C#CC5(C(F)F)CC5)cccc43)c3c(F)cccc3n12` [Example 191, 6-[2-[1-(Difluoromethyl)cyclopropyl]ethynyl]-1-(6-fluoro-1-methyl-[1,2,4]triazolo[4,3-a]quinazolin-5-yl)-3,5-dihydro-2H-4,1-benzoxazepine], the negative-log IC50 (pIC50) at human DGKα (setting [2]) is 8.44. For the same molecule, in experiment [1], the pEC50 is 8.85.
As to `Fc1cc(F)c2c(c1)c(N1CCCc3c(C#CC4(C(F)F)CC4)cccc31)nc1nncn12` [Example 119], at human DGKα (setting [2]), the pIC50 is 8.67. In addition, the pEC50 in experiment [1] is 8.54.
On the same counts, the results for `Cc1nnc2nc(N3CCCc4c(N5CCN(C(=O)C(F)(F)F)CC5)cccc43)c3c(F)cccc3n12` [Example 159] are 6.48 and 7.78.
Regarding `Cc1cnc(C(C)(C)C#Cc2cccc3c2COCCN3c2nc3nnc(C)n3c3ccc(F)c(F)c23)o1` [Example 66, 1-(6,7-difluoro-1-methyl-[1,2,4]triazolo[4,3-a]quinazolin-5-yl)-6-(3-methyl-3-(5-methyloxazol-2-yl)but-1-yn-1-yl)-1,2,3,5-tetrahydrobenzo[e][1,4]oxazepine], the pIC50 at human DGKα (setting [2]) is 7.89. Moreover, the pEC50 in experiment [1] was 8.17.
For the molecule `CCCCCc1cc(C2(C#Cc3cccc4c3CCCN4c3nc4nnc(C)n4c4cccc(F)c34)CC2)no1` [Example 221, 3-(1-((1-(6-fluoro-1-methyl-[1,2,4]triazolo[4,3-a]quinazolin-5-yl)-1,2,3,4-tetrahydroquinolin-5-yl)ethynyl)cyclopropyl)-5-pentylisoxazole], the pIC50 at human DGKα (setting [2]) was 6.92. Further, the pEC50 in experiment [1] was 9.19.

Values taken from patent US11976072B2, “Diacylglycerol kinase modulating compounds” (priority 2021, dated 2024).
